Test results published in ChEMBL document CHEMBL1909046, “DrugMatrix in vitro pharmacology data”.

Experiments:
[1] = DRUGMATRIX: ATPase, Na+/K+ enzyme inhibition (substrate: ATP); format: tissue-based, Sus scrofa, Heart; settings: Not Active = under 50% inhibition at 10 µM
[2] = DRUGMATRIX: GABAA, Flunitrazepam, Central radioligand binding (ligand: [3H] Flunitrazepam); format: cell membranes, Rattus norvegicus, Wistar, Brain, Membrane; settings: Not Active = under 50% inhibition at 10 µM
Carbonic anhydrase 2 = Carbonic anhydrase 2 (Homo sapiens, UniProt P00918); assay: DRUGMATRIX: Carbonic Anhydrase II enzyme inhibition (substrate: 4-Nitrophenyl acetate (4-NPA)); format: tissue-based, Erythrocyte; settings: erythrocyte; Not Active = under 50% inhibition at 10 µM
[3] = target: T1, Cholecystokinin receptor type A (Homo sapiens, UniProt P32238); format: cell membranes, Membrane; settings: 1321-n1; note: in other assays of this panel Not Active means under 50% inhibition at 10 µM
T1 sequence (P32238 whole entry): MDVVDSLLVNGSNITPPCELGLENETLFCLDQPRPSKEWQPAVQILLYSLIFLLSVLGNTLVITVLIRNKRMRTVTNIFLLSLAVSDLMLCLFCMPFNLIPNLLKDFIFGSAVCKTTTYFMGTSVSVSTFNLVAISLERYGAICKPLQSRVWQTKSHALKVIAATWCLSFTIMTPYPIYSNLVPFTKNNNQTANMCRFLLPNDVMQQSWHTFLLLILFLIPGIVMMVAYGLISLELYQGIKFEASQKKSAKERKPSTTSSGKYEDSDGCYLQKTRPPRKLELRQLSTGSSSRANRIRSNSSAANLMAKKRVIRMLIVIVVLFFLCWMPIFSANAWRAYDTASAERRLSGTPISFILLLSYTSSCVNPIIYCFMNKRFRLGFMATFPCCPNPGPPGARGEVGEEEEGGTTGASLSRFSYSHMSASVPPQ

[4] = target: T2, Cysteinyl leukotriene receptor 1 (Homo sapiens, UniProt Q9Y271); format: cell membranes, CHO-K1, Membrane; settings: cho-k1; note: in other assays of this panel Not Active means under 50% inhibition at 10 µM
T2 sequence (Q9Y271 whole entry): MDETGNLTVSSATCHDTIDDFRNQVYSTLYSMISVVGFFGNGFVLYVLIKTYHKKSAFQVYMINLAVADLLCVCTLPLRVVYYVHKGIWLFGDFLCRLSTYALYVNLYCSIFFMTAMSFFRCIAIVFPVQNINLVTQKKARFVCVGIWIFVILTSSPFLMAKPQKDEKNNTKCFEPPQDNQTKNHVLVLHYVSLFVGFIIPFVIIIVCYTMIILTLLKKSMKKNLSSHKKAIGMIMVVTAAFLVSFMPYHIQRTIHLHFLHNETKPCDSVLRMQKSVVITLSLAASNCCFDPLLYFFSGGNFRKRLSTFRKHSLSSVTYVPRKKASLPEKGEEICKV

Cytochrome P450 2C9 = Cytochrome P450 2C9 (Homo sapiens, UniProt P11712); settings: bti-tn-5b1-4; note: in other assays of this panel Not Active means under 50% inhibition at 10 µM
Sequence of Cytochrome P450 2C9 (P11712 whole entry): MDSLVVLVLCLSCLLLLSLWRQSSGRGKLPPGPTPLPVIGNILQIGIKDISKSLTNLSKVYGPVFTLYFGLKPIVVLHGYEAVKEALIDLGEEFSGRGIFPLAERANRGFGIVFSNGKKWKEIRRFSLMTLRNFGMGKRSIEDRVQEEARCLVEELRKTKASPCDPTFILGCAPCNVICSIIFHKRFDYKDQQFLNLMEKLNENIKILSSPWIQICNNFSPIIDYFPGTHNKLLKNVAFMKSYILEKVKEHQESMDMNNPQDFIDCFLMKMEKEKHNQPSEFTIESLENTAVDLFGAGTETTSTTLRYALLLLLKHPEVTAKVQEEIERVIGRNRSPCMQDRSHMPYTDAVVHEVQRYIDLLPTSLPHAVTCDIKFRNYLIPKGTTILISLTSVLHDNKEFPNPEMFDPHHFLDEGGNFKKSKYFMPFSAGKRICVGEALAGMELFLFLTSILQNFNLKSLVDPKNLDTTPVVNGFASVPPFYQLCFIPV

[5] = target: Epidermal growth factor receptor (Homo sapiens, UniProt P00533); assay: DRUGMATRIX: Protein Tyrosine Kinase, EGF Receptor enzyme inhibition (substrate: Poly(Glu:Tyr)); format: cell-based, Insect cells; settings: insect cells; Not Active = under 50% inhibition at 10 µM
Sequence of Epidermal growth factor receptor (P00533 whole entry): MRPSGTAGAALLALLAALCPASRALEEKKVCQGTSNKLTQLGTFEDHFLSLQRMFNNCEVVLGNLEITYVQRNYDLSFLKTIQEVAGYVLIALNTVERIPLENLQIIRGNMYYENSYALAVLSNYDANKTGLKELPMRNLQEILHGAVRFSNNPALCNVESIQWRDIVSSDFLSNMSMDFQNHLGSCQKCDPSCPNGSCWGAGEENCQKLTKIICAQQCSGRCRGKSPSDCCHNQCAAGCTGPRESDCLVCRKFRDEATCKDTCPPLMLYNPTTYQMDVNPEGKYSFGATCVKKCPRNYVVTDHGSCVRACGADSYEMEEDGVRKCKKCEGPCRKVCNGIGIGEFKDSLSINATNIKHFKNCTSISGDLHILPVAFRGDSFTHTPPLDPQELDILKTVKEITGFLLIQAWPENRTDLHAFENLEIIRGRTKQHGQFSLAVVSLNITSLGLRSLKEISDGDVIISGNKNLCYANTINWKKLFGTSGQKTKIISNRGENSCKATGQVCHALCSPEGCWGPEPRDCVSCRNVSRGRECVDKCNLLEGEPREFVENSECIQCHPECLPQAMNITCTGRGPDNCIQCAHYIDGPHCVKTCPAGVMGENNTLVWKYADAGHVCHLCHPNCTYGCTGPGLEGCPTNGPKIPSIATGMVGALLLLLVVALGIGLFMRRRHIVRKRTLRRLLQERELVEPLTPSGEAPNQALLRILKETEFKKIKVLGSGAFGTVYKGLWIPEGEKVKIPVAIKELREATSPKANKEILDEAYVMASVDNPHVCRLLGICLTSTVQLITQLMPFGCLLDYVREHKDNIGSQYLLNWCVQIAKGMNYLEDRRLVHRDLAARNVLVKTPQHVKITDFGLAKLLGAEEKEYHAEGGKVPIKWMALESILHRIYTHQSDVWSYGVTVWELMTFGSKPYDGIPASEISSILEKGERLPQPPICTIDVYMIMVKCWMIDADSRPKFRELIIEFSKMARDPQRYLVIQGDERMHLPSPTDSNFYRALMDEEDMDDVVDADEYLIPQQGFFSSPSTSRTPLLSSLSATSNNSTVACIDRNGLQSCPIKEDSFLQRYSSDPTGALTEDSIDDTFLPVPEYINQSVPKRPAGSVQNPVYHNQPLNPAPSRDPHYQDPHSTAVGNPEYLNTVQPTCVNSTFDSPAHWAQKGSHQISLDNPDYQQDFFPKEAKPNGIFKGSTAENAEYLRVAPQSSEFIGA

| SMILES | IC50 [1] | Ki [1] | IC50 [2] | Ki [2] | IC50 (Carbonic anhydrase 2) | IC50 [3] | IC50 [4] | IC50 (Cytochrome P450 2C9) | Ki (Cytochrome P450 2C9) | IC50 [5] | IC50 ([1]; read-out: IC50) [nM] |
| --- | --- | --- | --- | --- | --- | --- | --- | --- | --- | --- | --- |
| Cn1c(=O)c2c(ncn2CC2OCCO2)n(C)c1=O [DOXOFYLLINE] | Not Active | Not Active | Not Active | Not Active | Not Active | Not Active | Not Active | Not Active | Not Active | Not Active |  |
| Cc1cc2cc3c(C)cc(=O)oc3c(C)c2o1 [TRIOXSALEN] | Not Active | Not Active | Not Active | Not Active | Not Active | Not Active | Not Active | Not Active | Not Active | Not Active |  |
| Cc1ncc([N+](=O)[O-])n1CCO [METRONIDAZOLE] | Not Active | Not Active | Not Active | Not Active | Not Active | Not Active | Not Active | Not Active | Not Active | Not Active |  |
| OC(CCN1CCCCC1)(c1ccccc1)C1CCCCC1 (centres undefined) [TRIHEXYPHENIDYL] | Not Active | Not Active | Not Active | Not Active | Not Active | Not Active | Not Active | Not Active | Not Active | Not Active |  |
| O=C(C1CCCCC1)N1CC(=O)N2CCc3ccccc3C2C1 (centres undefined) [PRAZIQUANTEL] | Not Active | Not Active | Not Active | Not Active | Not Active | Not Active | Not Active | Not Active | Not Active | Not Active |  |
| C=C1CC[C@H](O)C/C1=C/C=C1\CCC[C@]2(C)[C@@H]([C@H](C)CCCC(C)C)CC[C@@H]12 [CHOLECALCIFEROL] | Not Active | Not Active | Not Active | Not Active | Not Active | Not Active | Not Active | Not Active | Not Active | Not Active |  |
| CC(=O)OCC(=O)[C@@]1(O)CC[C@H]2[C@@H]3CCC4=CC(=O)CC[C@]4(C)[C@H]3C(=O)C[C@@]21C [CORTISONE ACETATE] | Not Active | Not Active | Not Active | Not Active | Not Active | Not Active | Not Active | Not Active | Not Active | Not Active |  |
| COc1ccc2[nH]c([S+]([O-])Cc3ncc(C)c(OC)c3C)nc2c1 (centres undefined) [OMEPRAZOLE] | Not Active | Not Active | Not Active | Not Active | Not Active | Not Active | Not Active | Not Active | Not Active | Not Active |  |
| C[C@@]12C(=O)OC(=O)[C@]1(C)[C@H]1CC[C@@H]2O1 [CANTHARIDIN] | Not Active | Not Active | Not Active | Not Active | Not Active | Not Active | Not Active | Not Active | Not Active | Not Active |  |
| Nc1c(CC(=O)O)cccc1C(=O)c1ccc(Br)cc1 [BROMFENAC] | Not Active | Not Active | Not Active | Not Active | Not Active | Not Active | Not Active | Not Active | Not Active | Not Active |  |
| C[C@H]1O[C@@H](O[C@H]2[C@@H](O)C[C@H](O[C@H]3[C@@H](O)C[C@H](O[C@H]4CC[C@@]5(C)[C@H](CC[C@@H]6[C@@H]5CC[C@]5(C)[C@@H](C7=CC(=O)OC7)CC[C@]65O)C4)O[C@@H]3C)O[C@@H]2C)C[C@H](O)[C@@H]1O [DIGITOXIN] |  |  | Not Active | Not Active | Not Active | Not Active | Not Active | Not Active | Not Active | Not Active | 225 |
| C[N+](C)(C)CCO.[Cl-] [CHOLINE CHLORIDE] | Not Active | Not Active | Not Active | Not Active | Not Active | Not Active | Not Active | Not Active | Not Active | Not Active |  |
